Data: patent publication US8680137B2, “Agents and methods for treating ischemic and other diseases” (Nono Inc., priority 2009, dated 2014)
Where two headings read alike, the source gives them in different places.

Experiments:
[1] = tested on: HCT-116 colon cancer; test: Cancer cell proliferation, HCT-116; assay type: cell-based; details: for IC50: Homo sapiens
Method: (§1) To determine the breadth of efficacy in cancers, we examined the efficacy of a range of TRPM7 inhibitors for their ability to inhibit cell proliferation in cancer cell lines. Representative figures are included as examples.
(§2) Cells (Table 1) were grown to 70% confluency, trypsinized, counted, and seeded in 96-well flat-bottom plates at a final concentration of 2.5×10^3-5.0×10^3 cells/well in growth media containing 5% FBS (Day 0). Other well sizes and cell densities were used successfully as well. Cells were allowed to incubate in growth media for 24 hours to allow for maximum adhesion. Treatment with the test agent began on Day 1 and continued for 72 hours either with or without retreatment. At the 72 hour time point, viable cell numbers are quantified by the CellTiter-Glo® cell viability assay as described above, or using standard MTT, SRB or BrDU assays. Experiments were repeated at least twice with the same concentrations to determine growth inhibitory activity.
(§3) Data Collection—For the cell proliferation studies, data from each experiment was collected and expressed as % Cell Growth using the following calculation: % Cell Growth=(ftest/fvehicle)×100 Where ftest is the luminescent signal of the tested sample, and fvehicle is the luminescence of the vehicle in which the drug is dissolved (or appropriate measure for the other viability/proliferation measures). Dose response graphs and IC50 values were generated using standard software using the following variable slope equation: […]

[2] = tested on: A375 melanoma; test: Cancer cell proliferation, A375; assay type: cell-based; details: Homo sapiens
Method: as §1, §2, §3

[3] = tested on: RXF-393 renal; test: Cancer cell proliferation, RXF-393; assay type: cell-based, human; details: for IC50: Homo sapiens
Method: as §1, §2, §3

[4] = tested on: Y79 retinoblastoma cells; test: Y79 retinoblastoma cells seeded on cultured retinal explants (ex vivo); assay type: cell-based
Method: Retinal explants were surgically dissected and cultured by standard methods. One hundred thousand Y79 retinoblastoma cells were then seeded onto the retinas in culture and allowed to grow for 2 weeks on inserts in the presence or absence of 5 μM M6. Y79 cells were fluorescently labeled and intensity was counted (arbitrary fluorescence units). […] TRPM7 inhibitors may be useful in the reduction of tumor metastasis in addition to either reducing the proliferation or killing of cancer cells. FIG. 78 is a repetition of the experiment, observing the distribution of Y79 cells after 12 days of migration off the retina. The darker bars of each pair indicate fluorescence intensity of cells that have migrated off the retina.

[5] = tested on: H9c2 cardiomyocytes; test: Toxicity on H9c2 cardiomyocytes, PI uptake after 72 hours; assay type: cell-based, rat
Method: To differentiate between an anti-proliferative effect of the TRPM7 inhibitors and cellular toxicity, the compounds were added to various ‘non-cancerous’ cell lines at the same concentrations and the percentage of PI uptake was measured after 72 hours.

[6] = target: T1, TRPM4 (Homo sapiens, UniProt Q8TD43); test: Agonist-induced Ca2+ changes in HEK293 cells transfected with TRPM4; assay type: cell-based
T1 construct: expressed in transfected cells; host or cells: HEK293
T1 sequence (Q8TD43 whole entry, species assumed): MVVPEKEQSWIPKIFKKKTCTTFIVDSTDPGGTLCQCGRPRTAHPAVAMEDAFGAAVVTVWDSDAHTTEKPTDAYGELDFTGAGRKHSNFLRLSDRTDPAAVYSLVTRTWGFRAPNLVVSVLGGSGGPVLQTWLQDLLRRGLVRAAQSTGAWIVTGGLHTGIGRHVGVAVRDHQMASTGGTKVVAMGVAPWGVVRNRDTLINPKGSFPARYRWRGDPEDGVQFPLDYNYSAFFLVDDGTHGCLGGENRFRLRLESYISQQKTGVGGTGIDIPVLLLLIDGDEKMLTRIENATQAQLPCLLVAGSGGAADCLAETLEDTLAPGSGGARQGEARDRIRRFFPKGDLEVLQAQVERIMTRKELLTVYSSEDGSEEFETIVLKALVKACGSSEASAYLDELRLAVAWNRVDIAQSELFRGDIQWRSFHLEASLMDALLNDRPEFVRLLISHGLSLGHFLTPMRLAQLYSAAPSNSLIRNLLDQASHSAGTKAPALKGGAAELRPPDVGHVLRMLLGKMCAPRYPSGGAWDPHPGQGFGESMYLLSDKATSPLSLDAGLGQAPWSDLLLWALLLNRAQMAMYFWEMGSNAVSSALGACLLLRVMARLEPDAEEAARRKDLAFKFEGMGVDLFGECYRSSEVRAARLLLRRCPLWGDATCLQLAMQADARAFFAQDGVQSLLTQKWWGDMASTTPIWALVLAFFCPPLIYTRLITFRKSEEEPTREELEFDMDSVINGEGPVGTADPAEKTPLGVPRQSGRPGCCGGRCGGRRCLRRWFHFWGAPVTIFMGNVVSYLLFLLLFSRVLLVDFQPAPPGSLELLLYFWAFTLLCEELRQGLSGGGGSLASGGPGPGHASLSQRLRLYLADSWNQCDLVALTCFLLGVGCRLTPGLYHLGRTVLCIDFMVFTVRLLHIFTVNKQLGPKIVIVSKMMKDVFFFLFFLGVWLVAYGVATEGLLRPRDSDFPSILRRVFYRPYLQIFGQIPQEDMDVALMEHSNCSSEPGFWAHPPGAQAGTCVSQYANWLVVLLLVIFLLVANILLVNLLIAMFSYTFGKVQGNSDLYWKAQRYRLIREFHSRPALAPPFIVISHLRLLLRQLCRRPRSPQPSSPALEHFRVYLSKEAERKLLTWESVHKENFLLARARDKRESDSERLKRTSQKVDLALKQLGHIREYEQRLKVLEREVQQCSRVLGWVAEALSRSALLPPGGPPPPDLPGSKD
Method: (§4) To examine selectivity of a subset of these TRPM7 inhibitors, experiments were performed to determine whether TRPM7 antagonists cross-react with other ionic channels and receptors. […] From a therapeutic perspective, knowledge of cross-reactivity of candidate drugs could shed light on other ischemic mechanisms and raise awareness of potential side effects. M21 has no effect on voltage-sensitive Na+, and Ca2+ currents in cultured cortical neurons […] TRPM7-expressing HEK293 cells, but inhibits K+ currents by about 20% at membrane potentials of −10 mV. M21 had no effect on agonist-induced Ca2+ changes in HEK293 cells transfected with constructs for TRPM2, TRPM4, TRPM6, TRPV1, TRPC2 and TRPA1. M21 also has no effect on NMDA and AMPA receptor currents in cultured neurons. […] Similar experiments were performed with other TRPM7 inhibitors including M5 and M11.

[7] = target: T2, TRPM6 (Homo sapiens, UniProt Q9BX84); test: Agonist-induced Ca2+ changes in HEK293 cells transfected with TRPM6; assay type: cell-based
T2 construct: expressed in transfected cells; host or cells: HEK293
T2 sequence (Q9BX84 whole entry, species assumed): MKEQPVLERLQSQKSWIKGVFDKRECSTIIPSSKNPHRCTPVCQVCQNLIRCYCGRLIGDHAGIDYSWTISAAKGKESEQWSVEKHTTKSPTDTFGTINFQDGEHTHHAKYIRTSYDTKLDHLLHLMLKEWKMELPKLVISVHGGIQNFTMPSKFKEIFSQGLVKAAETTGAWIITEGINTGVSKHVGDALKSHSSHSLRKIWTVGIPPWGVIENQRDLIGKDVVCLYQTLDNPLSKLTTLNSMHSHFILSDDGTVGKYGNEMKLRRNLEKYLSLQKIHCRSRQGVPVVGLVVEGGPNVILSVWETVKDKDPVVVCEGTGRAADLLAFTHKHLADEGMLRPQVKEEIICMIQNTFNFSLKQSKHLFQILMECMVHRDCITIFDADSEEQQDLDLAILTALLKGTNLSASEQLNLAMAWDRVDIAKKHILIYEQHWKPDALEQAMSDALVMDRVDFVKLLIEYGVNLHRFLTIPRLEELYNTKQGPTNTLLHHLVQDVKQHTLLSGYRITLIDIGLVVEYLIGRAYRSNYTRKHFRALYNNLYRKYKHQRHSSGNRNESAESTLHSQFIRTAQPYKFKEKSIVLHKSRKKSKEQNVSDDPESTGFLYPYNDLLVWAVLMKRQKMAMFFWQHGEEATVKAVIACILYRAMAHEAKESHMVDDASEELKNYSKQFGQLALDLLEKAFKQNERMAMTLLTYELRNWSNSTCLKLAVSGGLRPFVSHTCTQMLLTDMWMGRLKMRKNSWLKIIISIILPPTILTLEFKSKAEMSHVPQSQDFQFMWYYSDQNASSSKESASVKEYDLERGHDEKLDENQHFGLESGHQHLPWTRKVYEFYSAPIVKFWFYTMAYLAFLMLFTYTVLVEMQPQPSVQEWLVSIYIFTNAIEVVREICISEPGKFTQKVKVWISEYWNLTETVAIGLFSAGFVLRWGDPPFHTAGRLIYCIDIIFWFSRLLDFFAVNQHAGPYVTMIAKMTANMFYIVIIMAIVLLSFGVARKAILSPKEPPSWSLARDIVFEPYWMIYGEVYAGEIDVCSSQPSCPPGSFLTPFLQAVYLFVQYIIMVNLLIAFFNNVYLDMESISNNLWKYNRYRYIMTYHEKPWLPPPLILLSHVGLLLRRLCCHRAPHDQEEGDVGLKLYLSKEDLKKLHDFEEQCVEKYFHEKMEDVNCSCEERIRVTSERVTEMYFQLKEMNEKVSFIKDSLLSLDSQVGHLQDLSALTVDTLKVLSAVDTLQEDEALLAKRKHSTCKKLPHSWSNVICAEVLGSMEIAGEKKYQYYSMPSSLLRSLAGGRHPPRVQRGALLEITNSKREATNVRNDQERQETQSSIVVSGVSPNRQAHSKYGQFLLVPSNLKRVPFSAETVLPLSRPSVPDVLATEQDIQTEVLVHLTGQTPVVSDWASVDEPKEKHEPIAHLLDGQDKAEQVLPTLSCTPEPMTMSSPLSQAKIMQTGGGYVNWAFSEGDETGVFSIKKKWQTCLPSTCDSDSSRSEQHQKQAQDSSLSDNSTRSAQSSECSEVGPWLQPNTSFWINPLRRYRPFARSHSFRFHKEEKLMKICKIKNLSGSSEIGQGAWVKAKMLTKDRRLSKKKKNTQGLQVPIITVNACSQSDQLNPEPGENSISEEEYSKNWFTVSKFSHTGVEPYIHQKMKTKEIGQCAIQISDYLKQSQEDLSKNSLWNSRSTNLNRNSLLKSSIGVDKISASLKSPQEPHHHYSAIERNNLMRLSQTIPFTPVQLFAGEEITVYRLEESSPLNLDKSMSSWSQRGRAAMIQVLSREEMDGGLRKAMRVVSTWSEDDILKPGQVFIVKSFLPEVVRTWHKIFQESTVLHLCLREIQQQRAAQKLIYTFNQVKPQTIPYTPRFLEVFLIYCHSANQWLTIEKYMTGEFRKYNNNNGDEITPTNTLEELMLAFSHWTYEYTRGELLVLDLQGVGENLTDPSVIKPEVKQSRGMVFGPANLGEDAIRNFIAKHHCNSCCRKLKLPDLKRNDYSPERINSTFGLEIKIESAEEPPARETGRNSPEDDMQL
Method: as §4

[8] = target: T3, TRPA1 (Homo sapiens, UniProt O75762); test: Agonist-induced Ca2+ changes in HEK293 cells transfected with TRPA1; assay type: cell-based
T3 construct: expressed in transfected cells; host or cells: HEK293
T3 sequence (O75762 whole entry, species assumed): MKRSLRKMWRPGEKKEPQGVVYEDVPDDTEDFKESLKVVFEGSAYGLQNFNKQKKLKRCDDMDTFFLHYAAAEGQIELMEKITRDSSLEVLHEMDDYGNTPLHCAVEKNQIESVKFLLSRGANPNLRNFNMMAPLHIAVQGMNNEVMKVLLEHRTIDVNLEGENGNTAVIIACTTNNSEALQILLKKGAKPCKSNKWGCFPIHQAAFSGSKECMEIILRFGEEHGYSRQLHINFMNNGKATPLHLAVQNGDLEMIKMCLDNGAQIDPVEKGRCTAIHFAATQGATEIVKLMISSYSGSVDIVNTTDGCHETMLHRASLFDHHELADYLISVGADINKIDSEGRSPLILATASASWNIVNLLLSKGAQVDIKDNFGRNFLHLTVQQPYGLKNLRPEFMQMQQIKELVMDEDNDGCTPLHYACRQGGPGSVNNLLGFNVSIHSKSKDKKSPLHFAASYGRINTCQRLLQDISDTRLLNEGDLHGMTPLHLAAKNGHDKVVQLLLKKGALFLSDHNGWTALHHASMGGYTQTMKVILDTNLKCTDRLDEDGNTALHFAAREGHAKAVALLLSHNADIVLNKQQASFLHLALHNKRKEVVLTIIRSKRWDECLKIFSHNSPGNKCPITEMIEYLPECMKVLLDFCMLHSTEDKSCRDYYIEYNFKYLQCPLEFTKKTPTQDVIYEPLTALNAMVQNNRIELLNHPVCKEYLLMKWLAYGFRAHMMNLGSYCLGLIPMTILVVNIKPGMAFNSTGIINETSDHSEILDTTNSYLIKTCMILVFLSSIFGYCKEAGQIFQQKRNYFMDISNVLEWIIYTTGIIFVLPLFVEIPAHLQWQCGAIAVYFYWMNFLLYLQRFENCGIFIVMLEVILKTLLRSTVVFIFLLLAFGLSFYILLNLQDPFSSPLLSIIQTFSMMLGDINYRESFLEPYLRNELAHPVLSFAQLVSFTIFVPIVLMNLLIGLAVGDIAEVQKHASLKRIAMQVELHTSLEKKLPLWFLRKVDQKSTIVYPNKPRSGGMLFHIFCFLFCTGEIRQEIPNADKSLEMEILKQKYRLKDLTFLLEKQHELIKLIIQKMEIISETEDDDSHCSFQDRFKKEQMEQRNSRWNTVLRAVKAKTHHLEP
Method: as §4

[9] = tested on: AML12 hepatocytes; test: Anoxia (OGD) in AML12 hepatocyte cultures; assay type: cell-based, mouse; details: 2 hour, 4 hour or 6 hour anoxia
Method: The ability of TRPM7 inhibitors to protect other types of cell cultures following exposure to anoxia, including non-neuronal cell cultures, has also been tested. In general, cultures of growing cells are exposed to a 1-6 hour period of anoxia, followed by addition of a TRPM7 at a range of concentrations upon removal from anoxic conditions. […] This implies that TRPM7 inhibitors may be useful both as a treatment for anoxic damage to patients presenting symptoms of a disorder associated with anoxic damage, or as a preventative measure. Such preventative measures can be chronic, such as treatment to protect against damage from heart attacks or strokes, or acute, to be given prior to or during surgical procedures, which may include but not be limited to procedures that involve endovascular invasion and have the possibility of dislodging material that may block blood flow through arteries. […]

[10] = tested on: raised intraocular pressure (IOP); test: Raised intraocular pressure model of acute glaucoma in rats; assay type: in vivo, rat; details: intraocular injection, 80 mm Hg 1 hour, 7-14 days
Method: We next tested whether direct intraocular injection of M21 could reduce retinal damage evoked by raising the intraocular pressure (IOP) in rats (80 mm Hg 1 hour; Morrison J C. Elevated intraocular pressure and optic nerve injury models in the rat. J Glaucoma. 2005; 14:315-317). M21 was microinjected into the vitreous humor directly, to control for any blood-brain-barrier penetration issues. […] The compounds of this invention can be used for the treatment of retinal disorders. Preferably these compounds are delivered orally, as an injection (intravenous, intraocular), or administered topically. This model of glaucoma can be used to assess the different routes of administration for these compounds

[11] = tested on: formalin-induced pain behaviors; test: Formalin induced inflammatory pain in rats; assay type: in vivo, rat; details: i.v. administration, formalin 2.5% 50 μL plantar hindpaw

COc1cc2c(cc1OC)C(c1sc3ccccc3c1Cl)=NCC2 [Compound M6]
Demonstrated Reduction of Proliferation at or below 10 μM Inhibitor concentration ([1]; HCT-116, >20% inhibition at 48-96 hours, MTT, SRB, luminescence or BrDU): HCT-116 | IC50 ([1]; HCT-116, 72 h, HCT-116, Exp 1, 72 hours, read-out: IC50): 14.7 µM | IC50 ([1]; HCT-116, 72 h, HCT-116, Exp 2, 72 hours, read-out: IC50): 17.2 µM | IC50 ([1]; HCT-116, HCT-116, mean of Exp 1 and Exp 2, read-out: Mean IC50): 16 µM | IC50 ([2]; A-375, 72 h, A375, Exp 1, 72 hours, read-out: IC50): 12.6 µM | IC50 ([2]; A-375, 72 h, A375, Exp 2, 72 hours, read-out: IC50): 14.2 µM | IC50 ([2]; A-375, A375, mean of Exp 1 and Exp 2, read-out: Mean IC50): 13.4 µM | IC50 ([3]; RXF 393, 72 h, RXF393, Exp 1, 72 hours, read-out: IC50): 5.3 µM | IC50 ([3]; RXF 393, 72 h, RXF393, Exp 2, 72 hours, read-out: IC50): 8.1 µM | IC50 ([3]; RXF 393, RXF393, mean of Exp 1 and Exp 2, read-out: Mean IC50): 6.7 µM | Demonstrated Reduction of Proliferation at or below 10 μM Inhibitor concentration ([3]; RXF-393, >20% inhibition at 48-96 hours, MTT, SRB, luminescence or BrDU): RXF-393 renal | fluorescence of cells migrated off the retinal explant ([4]; 1 μM, 12 days, FIG. 78): significantly lower Y79 fluorescence off of the retinal explant | amount of Y79 cells on cultured retinas (fluorescence) ([4]; 5 μM, 2 weeks): reduce the amount of Y79 cells | ability of Y79 cells to migrate off of the retina ([4]; 5 μM, 2 weeks, FIG. 77 panel B): significantly reduced the ability of Y79 cells to migrate off of the retina

O=C(Nc1ccc(F)cc1)C(Sc1ccc(Cl)cc1)c1ccccc1 (centres unmarked) [Compound M11]
toxicity (PI uptake) ([5]; 5 μM): No toxicity | toxicity (PI uptake) ([5]; 10 μM): slight toxicity

Cc1c(Cc2ccc(Cl)c(Cl)c2)c(=O)oc2cc(O)ccc12 [Compound M21]
effect on agonist-induced Ca2+ changes [6]: no effect | effect on agonist-induced Ca2+ changes [7]: no effect | effect on agonist-induced Ca2+ changes [8]: no effect | survival after anoxia [9]: can promote survival | retinal damage (histology) [10]: significant reduction in retinal damage | formalin-induced phase 1 (0-8 min) flinches [11]: little effect | formalin-induced phase 2 pain (9-60 min) flinches [11]: significantly reduced
